For this test, the target named is T1, human asc-1 (Homo sapiens, UniProt Q9NS82).
T1 construct: expressed in transfected cells; host or cells: HEK293 (ATCC CRL 1573), transient, vector pCI/neo
T1 sequence (Q9NS82 1-523): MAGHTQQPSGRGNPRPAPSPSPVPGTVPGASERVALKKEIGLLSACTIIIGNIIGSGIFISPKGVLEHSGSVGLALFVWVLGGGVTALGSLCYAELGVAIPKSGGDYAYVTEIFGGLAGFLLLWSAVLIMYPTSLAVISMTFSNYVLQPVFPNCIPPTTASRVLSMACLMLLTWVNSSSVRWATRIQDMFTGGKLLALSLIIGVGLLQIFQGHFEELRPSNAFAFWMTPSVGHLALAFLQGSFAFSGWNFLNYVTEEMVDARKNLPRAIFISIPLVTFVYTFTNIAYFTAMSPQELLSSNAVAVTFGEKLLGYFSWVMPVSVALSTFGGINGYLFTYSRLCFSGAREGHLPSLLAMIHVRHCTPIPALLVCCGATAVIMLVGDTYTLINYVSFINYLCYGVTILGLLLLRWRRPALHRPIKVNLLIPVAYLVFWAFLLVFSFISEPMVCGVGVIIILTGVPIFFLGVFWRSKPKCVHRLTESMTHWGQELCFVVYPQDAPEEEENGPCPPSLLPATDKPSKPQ
The test is described as follows: [3H]D-serine uptake into HEK293 cells expressing human asc-1. The format is cell-based. Here is the method: Uptake was determined 2-4 days after the transfection.
Into cortical membranes: Cortex from male Wistar rats (150-200 g) was homogenized in 0.40 M sucrose and centrifuged at 1000×g for 10 min. […] Test compounds and tissue (1 mg orig. tissue/well) were added to 96 well plates and incubated with [^3H]-D-serine (specific activity=26.8 Ci/mmol, PerkinElmer, Cambridge, U.K.) (100 nM final concentration) for 5 min at 25° C. Samples were filtered on Unifilter GF/B glass fiber (Packard Biosciences, Meriden, Conn., USA) and washed with 3×0.25 mL assay buffer. Measurements of [^3H]-D-serine uptake into whole HEK293 cells expressing human asc-1 were performed in 96 well plates with similar conditions except that the cells were incubated for 15 min with radioligand and washed by dipping twice in cold assay buffer following incubation with radioligand. Accumulated radioactivity was extracted from the cells by adding 200 μL scintillation fluid/well (Ultima Gold, Packard Biosciences) and the plates were counted in a Microplates Scintillation Counter (Packard Biosciences). The D-serine uptake in samples containing test compounds was compared to controls without added compound or controls where transport via the asc-1 was inhibited by addition of e.g. 30 mM L-alanine.

One may read the Ki as a dissociation constant, usually derived from enzyme kinetics or from competition with a known ligand. A low value points to higher affinity. For the compound `CSCC(N)C(=O)O` (stereo in doubt) [(S)-methyl-L-cysteine], the affinity, expressed as Ki, was 62 ± 15 µM.

Source of the values: patent publication US20050176826A1, “Use of asc-1 inhibitors to treat neurological and psychiatric disorders” (H. Lundbeck A/S, priority 2002, published 2005).
